What was measured:
Parameters in all cases: key: R = resistant; S = susceptible; BLAC = Beta-lactamase positive
S. aureus (S) = experiment: Susceptibility test of Gram positive Bacteria; format: cell-based
S. epidermidis (R) = experiment: Susceptibility test of Gram positive Bacteria; format: cell-based
MRSA = experiment: Susceptibility test of Gram positive Bacteria; format: cell-based, Methicillin-resistant S. aureus
S. epidermidis (S) = experiment: Susceptibility test of Gram positive Bacteria; format: cell-based
A. baumannii (R) = experiment: Susceptibility test of Gram negative Bacteria; format: cell-based
E. coli (S) = experiment: Susceptibility test of Gram negative Bacteria; format: cell-based
E. coli (R) = experiment: Susceptibility test of Gram negative Bacteria; format: cell-based
A. baumannii (S) = experiment: Susceptibility test of Gram negative Bacteria; format: cell-based

Row | Compound | Susceptibility test (S. aureus (S)) | Susceptibility test (S. epidermidis (R)) | Susceptibility test (MRSA) | Susceptibility test (S. epidermidis (S)) | Susceptibility test (A. baumannii (R)) | Susceptibility test (E. coli (S)) | Susceptibility test (E. coli (R)) | Susceptibility test (A. baumannii (S))
1 | Amoxicillin-Clavulanate | S | R | R | S | R |  |  | 
2 | C[C@@H](O)[C@H]1C(=O)N2C(C(=O)O)=C(SCCN=CN)C[C@H]12 [Imipenem] | S | R | R | S |  |  |  | 
3 | C[C@H]1[C@H](NC(=O)/C(=N\OC(C)(C)C(=O)O)c2csc(N)n2)C(=O)N1S(=O)(=O)O [Aztreonam] |  |  |  |  | R | S | R | 
4 | CO/N=C(\C(=O)N[C@@H]1C(=O)N2C(C(=O)O)=C(COC(N)=O)CS[C@H]12)c1ccco1 [Cefuroxime] |  |  |  |  | R |  | R | S
5 | Gentamycin | S | R | S | S |  |  |  | 
6 | CCC[C@@H]1C[C@@H](C(=O)N[C@@H]([C@H]2O[C@H](SC)[C@H](O)[C@@H](O)[C@H]2O)[C@H](C)Cl)N(C)C1 [Clindamycin] | S | R |  | S |  |  |  | 
7 | CC(=O)OCC1=C(C(=O)O)N2C(=O)[C@@H](NC(=O)Cc3cccs3)[C@H]2SC1 [Cefalotin] |  |  |  |  |  | S | R | 
8 | CC1(C)S[C@@H]2[C@H](NC(=O)Cc3ccccc3)C(=O)N2[C@H]1C(=O)O [Penicillin G] | BLAC | R | BLAC | S |  |  |  | 
9 | CO[C@@]1(NC(=O)Cc2cccs2)C(=O)N2C(C(=O)O)=C(COC(N)=O)CS[C@@H]21 [Cefoxitin] | Negative. | R | Positive. | S | R |  |  | 
10 | Cc1onc(-c2ccccc2)c1C(=O)N[C@@H]1C(=O)N2[C@@H]1SC(C)(C)[C@@H]2C(=O)O [Oxacillin] | S | R | R | S |  |  |  | 
11 | C=CC1=C(C(=O)O)N2C(=O)[C@@H](NC(=O)/C(=N\OCC(=O)O)c3csc(N)n3)[C@H]2SC1 [Cefixime] |  |  |  |  | R | S | R | 
12 | C/C(=C\C(=O)OCCCCCCCCC(=O)O)C[C@@H]1OC[C@H](C[C@@H]2O[C@H]2[C@@H](C)[C@H](C)O)[C@@H](O)[C@H]1O [Mupirocin] | S | R | S | S |  |  |  | 
13 | CC1(C)S[C@@H]2[C@H](NC(=O)[C@H](N)c3ccc(O)cc3)C(=O)N2[C@H]1C(=O)O [Amoxicillin] |  |  |  |  | R | S | R | S
14 | O=C1CN(/N=C/c2ccc([N+](=O)[O-])o2)C(=O)N1 [Nitrofurantoin] |  |  |  |  | R |  |  | 
15 | CO/N=C(\C(=O)N[C@@H]1C(=O)N2C(C(=O)O)=C(COC(C)=O)CS[C@H]12)c1csc(N)n1 [Cefotaxime] |  | R |  |  | R |  |  | S
16 | O=C(O)c1cn(C2CC2)c2cc(N3CCNCC3)c(F)cc2c1=O [Ciprofloxacin] | S | R | S | S |  |  |  | 
17 | CC1(C)S[C@@H]2[C@H](NC(=O)[C@H](N)c3ccccc3)C(=O)N2[C@H]1C(=O)O [Ampicillin] | BLAC | R | BLAC | S | R | S | R | 
18 | CO/N=C(\C(=O)N[C@@H]1C(=O)N2C(C(=O)O)=C(CSc3nc(=O)c(O)nn3C)CS[C@H]12)c1csc(N)n1 [Ciftriaxone] |  |  |  |  | R |  |  | 
19 | CC[C@H]1OC(=O)[C@H](C)[C@@H](O[C@H]2C[C@@](C)(OC)[C@@H](O)[C@H](C)O2)[C@H](C)[C@@H](O[C@@H]2O[C@H](C)C[C@H](N(C)C)[C@H]2O)[C@](C)(O)C[C@@H](C)C(=O)[C@H](C)[C@@H](O)[C@]1(C)O [Erythromycin] | R | R |  | S |  |  |  | 
20 | Trimethoprim-Sulfamethoxazole | S | R | S | S |  |  |  | 

From patent US11806790B2, “Biosynthesis of metal nanoparticles” (KING SAUD UNIVERSITY, priority 2019, dated 2023)
